Measured values as given in patent publication US10544154B2, “Opioid receptor antagonist prodrugs” (Nirsum Laboratories, Inc., priority 2017, dated 2020).
“Also recorded” adds a separate entry of the source.

Test: Clinical observations for dogs in pharmacokinetic studies
Format: in vivo, Beagle dogs
Settings: 48 mg/kg
Experimental: Weight monitoring was done every week.
The dose formulation (concentration—400 mg base equivalents/ml in sesame oil+1% benzyl alcohol, unless otherwise specified) was administered via deep intramuscularly (unless otherwise specified). The injection vehicle was also dosed via deep intramuscular route (unless otherwise specified) on contralateral site of each animal at study initiation. The animals were sedated with Propofol at 6 mg/kg via IV administration. Following sedation hair was carefully removed from around the injection site and the area gently cleaned. Care will be taken to avoid irritating skin during shaving and cleaning the injection site. Then dogs will be dosed with deep IM administration. At least 2.5 cm depth from the surface into the central aspect of the quadriceps or biceps femoris muscle, by angling the needle toward the femur. If the needle hits the femur, simply draws back slightly and then inject. The dose volume will be determined by the animals' body weight collected on the morning of dosing day. For repeated administration, the injection sites may be rotated to minimize tissue injury.

[1] = dog D1502 (third dog, c6), 96 hr
[2] = dog D1502 (third dog, c6), 120 hr
[3] = dog D1502 (third dog, c6), 144 hr
[4] = dog D1502 (third dog, c6), 192 hr
[5] = dog D1502 (third dog, c6), 216 hr

In the case of C=C1CC[C@@]2(O)C3Cc4ccc(OC(=O)OCCCCCCCCCCC)c5c4[C@@]2(CCN3CC2CC2)[C@H]1O5 [Compound 3, (4aS,7aS,12bS)-3-(cyclopropylmethyl)-4a-hydroxy-7-methylene-2,3,4,4a,5,6,7,7a-octahydro-1H-4,12-methanobenzofuro[3,2-e]isoquinolin-9-yl undecyl carbonate], the BT (dog D1001, Day 1) is reported as “cm/BT: 39.2° C./”, the BT (dog D1001, Day 2) is reported as 38.9 °C and the BT (dog D1001, Day 3) is reported as 39.1 °C. The BT (dog D1001, Day 4) was 38.5 °C, the BT (dog D1001, Day 5) was 38.6 °C and the BT (dog D1001, Day 6) was 38.4 °C. For the same compound, the BT (dog D1001, Day 7) was 38.4 °C, the BT (dog D1001, Day 8) was 38.7 °C and the BT (dog D1001, Day 9) was 38.7 °C. It also gave a BT (dog D1001, Day 10) of 38.4 °C, a BT (dog D1001, Day 11) of 38.8 °C and a BT (dog D1001, Day 12) of 38.0 °C. The BT (dog D1001, Day 13) was 38.4 °C, the BT (dog D1001, Day 15) was 37.8 °C and the BT (dog D1001, Day 17) was “BT: 38.3 °C”. The BT (dog D1001, Day 18) was “BT: 38.4 °C”, the BT (dog D1001, Day 19) was “BT: 38.3 °C” and the BT (dog D1001, Day 20) was “BT: 37.9 °C”. The BT (dog D1001, Day 21) was “BT: 38.6 °C”, the BT (dog D1001, Day 22) was “BT: 38.8 °C” and the BT (dog D1001, Day 23) was “BT: 38.3 °C”. For the same compound, the BT (dog D1001, Day 24) was “BT: 38.5 °C”, the BT (dog D1001, Day 25) was “BT: 38.4 °C” and the BT (dog D1001, Day 26) was “BT: 38.2 °C”. The BT (dog D1001, Day 27) was “BT: 38.4 °C”, the BT (dog D1002, Day 1) was 39.1 °C and the BT (dog D1002, Day 2) was 39.3 °C. The BT (dog D1002, Day 3) was 39.3 °C, the BT (dog D1002, Day 4) was 38.5 °C and the BT (dog D1002, Day 5) was 38.7 °C. It also gave a BT (dog D1002, Day 6) of 38.8 °C, a BT (dog D1002, Day 7) of 38.6 °C and a BT (dog D1002, Day 8) of 38.7 °C. The BT (dog D1002, Day 9) was 38.3 °C, the BT (dog D1002, Day 10) was “calf/BT: 38.3 °C” and the BT (dog D1002, Day 11) was 38.9 °C. It also gave a BT (dog D1002, Day 12) of 38.5 °C, a BT (dog D1002, Day 13) of 38.8 °C and a BT (dog D1002, Day 14) of 38.3 °C. For the same compound, the BT (dog D1002, Day 15) was 37.8 °C, the BT (dog D1002, Day 17) was 38.7 °C and the BT (dog D1002, Day 18) was 38.8 °C. For the same compound, the BT (dog D1002, Day 19) was 38.7 °C, the BT (dog D1002, Day 20) was 38.6 °C and the BT (dog D1002, Day 21) was “BT: 38.5 °C”. For the same compound, the BT (dog D1002, Day 22) was “BT: 39.3 °C”, the BT (dog D1002, Day 23) was “BT: 38.8 °C” and the BT (dog D1002, Day 24) was “BT: 39.1 °C”. The BT (dog D1002, Day 25) was “BT: 38.6 °C”, the BT (dog D1002, Day 26) was “BT: 38.6 °C” and the BT (dog D1002, Day 27) was “cm/BT: 38.6 °C”. For the same compound, the “Clinical observation, R-TA” value (dog D1003, 8 hr) was “Swelling 4 * 3”, the BT (dog D1003, Day 1) was “side/BT: 39.6 °C” and the BT (dog D1003, Day 2) was “side/BT: 39.7 °C”. The BT (dog D1003, Day 3) was 39.2 °C, the BT (dog D1003, Day 4) was “site/BT: 38.7 °C” and the BT (dog D1003, Day 5) was 39.0 °C. The BT (dog D1003, Day 6) was 39.2 °C, the BT (dog D1003, Day 7) was 39.5 °C and the BT (dog D1003, Day 8) was 39.4 °C. The BT (dog D1003, Day 9) was 38.8 °C, the BT (dog D1003, Day 10) was 38.9 °C and the BT (dog D1003, Day 11) was “swelling/BT: 39.4 °C”. The BT (dog D1003, Day 12) was “swelling/BT: 39.3 °C”, the BT (dog D1003, Day 13) was “swelling/BT: 39.9 °C” and the BT (dog D1003, Day 15) was “swelling/BT: 39.4 °C”. For the same compound, the BT (dog D1003, Day 17) was “swelling/BT: 39.5 °C”, the BT (dog D1003, Day 18) was “swelling/BT: 39.5 °C” and the BT (dog D1003, Day 19) was “swelling/BT: 39.4 °C”. For the same compound, the BT (dog D1003, Day 21) was “swelling/BT: 39.3 °C”, the BT (dog D1003, Day 22) was “swelling/BT: 39.9 °C” and the BT (dog D1003, Day 24) was “BT: 39.5 °C”. The BT (dog D1003, Day 25) was “BT: 39.8 °C”, the BT (dog D1003, Day 26) was “BT: 39.3 °C” and the BT (dog D1003, Day 27) was “BT: 38.9 °C”.
With C=C1CC[C@@]2(O)C3Cc4ccc(OCOC(=O)OCCCCCCCCCC)c5c4[C@@]2(CCN3CC2CC2)[C@H]1O5 [Compound 35, (((4aS,7aS,12bS)-3-(cyclopropylmethyl)-4a-hydroxy-7-methylene-2,3,4,4a,5,6,7,7a-octahydro-1H-4,12-methanobenzofuro[3,2-e]isoquinolin-9-yl)oxy)methyl decyl carbonate] the “Clinical observation, R-TA” value (dog D1501, 24 hr) was “Red spots at groin”, the “Clinical observation, R-TA” value (dog D1501, 48 hr) was “Red spots at groin” and the BT (dog D1501, 72 hr) was “at groin/BT: 39.1 °C”. For the same compound, the “Clinical observation, R-TA” value (dog D1501, 72 hr) was “Swelling; also recorded: Red spots”, the BT (dog D1501, 96 hr) was “at groin/BT: 39.0 °C” and the “Clinical observation, R-TA” value (dog D1501, 96 hr) was “Swelling; also recorded: Red spots”. For the same compound, the BT (dog D1501, 120 hr) was “at groin/BT: 39.1 °C”, the “Clinical observation, R-TA” value (dog D1501, 120 hr) was “Swelling; also recorded: Red spots” and the BT (dog D1501, 144 hr) was “groin/BT: 38.7 °C”. The BT (dog D1501, 192 hr) was “groin/BT: 38.2 °C”, the BT (dog D1501, 216 hr) was “groin/BT: 38.6 °C” and the “Clinical observation, R-TA” value (dog D1501, 216 hr) was “redness/Red spots at”. For the same compound, the BT (dog D1501, 240 hr) was “groin/BT: 38.2 °C”, the “Clinical observation, R-TA” value (dog D1501, 240 hr) was “induration” and the BT (dog D1501, 264 hr) was “groin/BT: 38.0 °C”. For the same compound, the “Clinical observation, R-TA” value (dog D1501, 264 hr) was “induration”, the BT (dog D1501, 288 hr) was “groin/BT: 38.4 °C” and the “Clinical observation, R-TA” value (dog D1501, 288 hr) was “induration”. For the same compound, the BT (dog D1501, […]) was “groin/BT: 38.9 °C”, the “Clinical observation, R-TA” value (dog D1501, day 13) was “induration” and the “Clinical observation, R-TA” value (dog D1501, day 14) was “induration”. The “Clinical observation, R-TA” value (dog D1501, day 15) was “induration”, the “Clinical observation, R-TA” value (dog D1501, day 16) was “induration” and the “Clinical observation, R-TA” value (dog D1501, day 17) was “induration”. For the same compound, the “Clinical observation, R-TA” value (dog D1501, day 18) was “induration”, the “Clinical observation, R-TA” value (dog D1502 (third dog, c6), 24 hr) was “Slight swelling/red” and the “Clinical observation, R-TA” value (dog D1502 (third dog, c6), 48 hr) was “Slight swelling/red”. The BT (dog D1502 (third dog, c6), 72 hr) was “leg/BT: 39.3 °C”, the BT [1] was “leg/BT: 39.3 °C” and the “Clinical observation, R-TA” value [1] was “induration and red”. For the same compound, the BT [2] was “BT: 39.4 °C”, the “Clinical observation, R-TA” value [2] was “induration and red” and the BT [3] was “BT: 39.0 °C”. For the same compound, the “Clinical observation, R-TA” value [3] was “induration and red”, the BT [4] was “at calf/BT: 39.2 °C” and the “Clinical observation, R-TA” value [4] was “Obvious swelling”. The BT [5] was “calf/BT: 39.2 °C”, the “Clinical observation, R-TA” value [5] was “red spot” and the BT (dog D1502 (third dog, c6), 240 hr) was “calf/BT: 38.9 °C”. For the same compound, the BT (dog D1502 (third dog, c6), 264 hr) was 38.7 °C, the BT (dog D1502 (third dog, c6), 288 hr) was 38.7 °C and the BT (dog D1502 (third dog, c6), […]) was “at calf/BT: 39.3 °C”. The “Clinical observation, R-TA” value (dog D1502 (third dog, c6), day 20) was “Not obvious”, the BT (dog D1502, 72 hr) was 39.6 °C and the “Clinical observation, R-TA” value (dog D1502, 72 hr) was “red”. The BT (dog D1502, 96 hr) was 38.9 °C, the BT (dog D1502, 120 hr) was 39.6 °C and the BT (dog D1502, 144 hr) was 38.9 °C. For the same compound, the “Clinical observation, R-TA” value (dog D1502, 144 hr) was “redness”, the BT (dog D1502, 192 hr) was “BT: 38.7 °C” and the BT (dog D1502, 216 hr) was “BT: 39.2 °C”. For the same compound, the BT (dog D1502, 240 hr) was “BT: 38.6 °C”, the BT (dog D1502, 264 hr) was “BT: 38.4 °C” and the BT (dog D1502, 288 hr) was “BT: 38.6 °C”. The BT (dog D1502, […]) was 39.9 °C.
